{
  "source": "patent US20180280447A1",
  "about": "“PLACENTA-DERIVED CELLS EXCRETING C3 OR C1R COMPLEMENT AND COMPOSITION CONTAINING SAME” (SUNGKWANG MEDICAL FOUNDATION, priority 2014, published 2018)",
  "format_in_all_cases": "cell-based, human",
  "key": {"hPDCs [1]": {"system": "hPDCs", "test": "Suppression of FGF4 downstream signaling (ERK, JNK) in hPDCs", "procedure": "[…] To analyze suppression of Notch signaling, ASCs were in cultured for 1 hour in a 10% FBS-supplemented alpha-MEM medium pretreated with or without 50 μM of Notch-inhibiting DAPT (N—[N-(3,5-difluorophenacetyl)-1-alanyl]-S-phenylglycine t-butyl ester, Sigma), and then stimulated with 25 ng/mL FGF4 for 3 days.\nCells were first fixed in 4% PFA at room temperature for 15 minutes, and then permeabilized with 0.1% Triton X-100 for 20 minutes, followed by blocking with 10% normal goat serum (NGS). The following primary antibodies were used: anti-neuron classIII β-tubulin (Tuji), -Nestin (Covance), -Ki-67 (Novocastra), -SOX2, -NANOG, KLF4, Brachyury/Bry (all from Abcam), OCT3/4, GATA4 (all from Santa Cruz). Cells were incubated with Alexa Fluor 488 or 594-conjugated antibody (Molecular Probes) at room temperature for 1 hour, and to examine nuclei, cells were stained with 4′, 6-diamino-2-phenylindole (DAPI, 2 mg/mL in PBS). A cover-slip was sealed to a glass slide. Cells were visualized by a fluorescence microscope or a confocal fluorescence microscope (LSM 510 confocal microscope, Zeiss)."}, "TGF-β1 mRNA": {"system": "TGF-β1 mRNA", "test": "TGF-β1 gene silencing by siRNA in PDCs", "source_text": "Using the human nucleotide sequences for TGF-β1 mRNA obtained from GenBank (GI:260655621) and referring to the design strategy of siRNA, two pairs of 21-bp reverse repeat sequences targeting TGF-β1 mRNA were synthesized by Bioneer (Seoul, Korea). siRNA targeted forward: 5′. CAGAGUACACACAGCAUAU-3′(1243-1261) (SEQ ID NO: 31); reverse, 5′-AUAUGCUGUGUGUACUCUG-3′(1261-1243) (SEQ ID NO: 32) of the TGF-β coding sequence. siRNA (at a final concentration of 100 pmol) was transfected with Upofectamine 2000 (Invitrogen, Gaithersburg, Md.) according to the manufacturer's instructions. The efficacy of TGF-β1 gene silencing was assessed by quantitative real-time PCR and Western blotting."}, "hPDCs [2]": {"system": "hPDCs", "test": "Notch/DLL1 signaling in nerve/neuron induction of hPDCs", "procedure": "(§1) Quantitative RT-PCR: Total RNA was isolated from cells using TRizol (Invitrogen). cDNA was synthesized from 1 μg of total RNA using Superscript II reverse transcriptase, Oligo-d(T) 12-18 primer, DTT, and dNTPs according to the manufacturer's protocol. RT-PCR was performed by using a Pre-Mix kit (Bioneer). A PCR product was electrophoresed on a 2% agarose gel using RedGel (Biotium, Inc), and visualized by a UV-transilluminator.\nTo suppress FGF4 downstream signaling, hPDCs were cultured for 1 hour in a 10% FBS-supplemented alpha-MEM medium pretreated with or without 5 μM of ERK-inhibiting U0126 or 10 μM of JNK-inhibiting SP600125 (Calbiochem) in dimethyl sulfoxide (DMSO), and then stimulated with 25 ng/mL FGF4 for 3 days. To analyze suppression of Notch signaling, […] were in cultured for 1 hour in a 10% FBS-supplemented alpha-MEM medium pretreated with or without 50 μM of Notch-inhibiting DAPT (N—[N-(3,5-difluorophenacetyl)-1-alanyl]-S-phenylglycine t-butyl ester, Sigma), and then stimulated with 25 ng/mL FGF4 for 3 days."}, "hPDCs [3]": {"system": "hPDCs", "test": "Neural induction of hPDCs by FGF4", "conditions": "3 days", "procedure": "as §1\nImmunoblotting analysis: Cells were washed with cold PBS, and lysed with a lysis buffer containing a protease inhibitor cocktail (Pierce). A total cell lysate was normalized with a Bradford reagent (Bio-Rad), and 30˜50 μg of the cell lysate was applied to 8˜12% SDS-PAGE and transferred onto a PVDF membrane (Milipore). The membrane was blocked with TBS-T (50 mM Tris-HCl, pH 7.6, 150 mM NaCl, 0.05% Tween-20) containing 5% skim milk (Becton Dickinson), and examined with respective antibodies. An immune reaction was performed by using an ECL Western Blotting system (Millipore, Amersham). […]\nCells were first fixed in 4% PFA at room temperature for 15 minutes, and then permeabilized with 0.1% Triton X-100 for 20 minutes, followed by blocking with 10% normal goat serum (NGS). […] Cells were visualized by a fluorescence microscope or a confocal fluorescence microscope (LSM 510 confocal microscope, Zeiss)."}},
  "data": [
    {"molecule": "N#CC(=C(/N)Sc1ccccc1N)/C(C#N)=C(\\N)Sc1ccccc1N", "note": "[U0126]", "values": [
      {"measurement": "% Ki-67+ cells in total DAPI+ cells", "setting": "hPDCs [1]; 5 mM U0216", "value": "64.46±2.14", "unit": "%"},
      {"measurement": "Nestin+ total cells", "setting": "hPDCs [1]; 5 mM U0216, FGF4, 72 hours", "value": "47.61±3.46"},
      {"measurement": "Nestin protein levels", "setting": "hPDCs [1]; FGF4-treated hPDCs, immunoblotting", "value": "decrease in Nestin protein levels"}
    ]},
    {"molecule": "TGF-β siRNA: siRNA targeting TGF-β1 mRNA, SEQ ID NO: 31 and 32, synthesized by Bioneer (chain 1 CAGAGUACACACAGCAUAU; chain 2 AUAUGCUGUGUGUACUCUG; listed as RNA, chemistry not given here)", "values": [
      {"measurement": "PEDF and Ang-1 expressions", "setting": "TGF-β1 mRNA; after TGF-β siRNA transfection", "value": "no changes"},
      {"measurement": "decrease of TGF-β expression", "setting": "TGF-β1 mRNA; quantitative real-time PCR, compared with control PDCs", "value": "80-90%"}
    ]},
    {"molecule": "Oc1c2ccccc2c2c3c(cccc13)N=N2", "note": "[SP600125]", "values": [
      {"measurement": "% Ki-67 cells in total DAPI+ cells", "setting": "hPDCs [1]; SP600125", "value": "37.53±1.89", "unit": "%"},
      {"measurement": "Nestin+ total cells", "setting": "hPDCs [1]; SP600125, FGF4, 72 hours", "value": "48.47±3.07"}
    ]},
    {"molecule": "C[C@H](NC(=O)Cc1cc(F)cc(F)c1)C(=O)N[C@H](C(=O)OC(C)(C)C)c1ccccc1", "note": "[DAPT, N—[N-(3,5-difluorophenacetyl)-1-alanyl]-S-phenylglycine t-butyl ester]", "values": [
      {"measurement": "DLL1, Nestin, and TUJ1 gene expression", "setting": "hPDCs [2]; compared with DMSO-treated cells, HD culture with FGF4", "value": "significantly low levels"}
    ]},
    {"molecule": "FGF4: growth factor (R&D Systems) tested for neural induction of hPDCs (protein, UniProt P08620 31-206, looked up) Fibroblast growth factor 4: APTAPNGTLEAELERRWESLVALSLARLPVAAQPKEAAVQSGAGDYLLGIKRLRRLYCNVGIGFHLQALPDGRIGGAHADTRDSLLELSPVERGVVSIFGVASRFFVAMSSKGKLYGSPFFTDECTFKEILLPNNYNAYESYKYPGMFIALSKNGKTKKGNRVSPTMKVTHFLPRL", "values": [
      {"measurement": "expression levels of Nestin and Musashi1", "setting": "hPDCs [3]; 25 ng/mL FGF4 vs 10 ng/mL EGF or 10 ng/mL bFGF", "value": "much higher"},
      {"measurement": "mRNA expression level of Nestin", "setting": "hPDCs [3]; 25 ng/mL among 10, 25, 50 ng/mL", "value": "highest mRNA expression level of Nestin"}
    ]},
    {"molecule": "DLL1-FLAG: recombinant DLL1 protein (protein, UniProt O00548 18-545, looked up, extracellular domain FLAG tag, recombinant DLL1 protein) extracellular domain: QVWSSGVFELKLQEFVNKKGLLGNRNCCRGGAGPPPCACRTFFRVCLKHYQASVSPEPPCTYGSAVTPVLGVDSFSLPDGGGADSAFSNPIRFPFGFTWPGTFSLIIEALHTDSPDDLATENPERLISRLATQRHLTVGEEWSQDLHSSGRTDLKYSYRFVCDEHYYGEGCSVFCRPRDDAFGHFTCGERGEKVCNPGWKGPYCTEPICLPGCDEQHGFCDKPGECKCRVGWQGRYCDECIRYPGCLHGTCQQPWQCNCQEGWGGLFCNQDLNYCTHHKPCKNGATCTNTGQGSYTCSCRPGYTGATCELGIDECDPSPCKNGGSCTDLENSYSCTCPPGFYGKICELSAMTCADGPCFNGGRCSDSPDGGYSCRCPVGYSGFNCEKKIDYCSSSPCSNGAKCVDLGDAYLCRCQAGFSGRHCDDNVDDCASSPCANGGTCRDGVNDFSCTCPPGYTGRNCSAPVSRCEHAPCHNGATCHERGHRYVCECARGYGGPNCQFLLPELPPGPAVVDLTEKLEGQGGPFPW", "values": [
      {"measurement": "mRNA levels of DLL1, Nestin, and TUJ1", "setting": "hPDCs [2]; three days with FGF4 in hPDC cultures", "value": "up-regulated"}
    ]}
  ]
}
